Reference: PubChem BioAssay (NCI)
Where “and” joins values, the source holds several entries; their conditions need not be identical. Identical values can stand only once.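 Step 1: Grow cells in 96-well plates. Step 2: Expose to compound for 48 hours at 5 concentrations. Step 3: Interpolate endpoints linearly; if unreached, use highest concentration. Here, GI50 denotes the concentration required for 50% inhibition of growth. TGI denotes the concentration required for complete inhibition of growth.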

Key:
Assay in all cases: NCI-60 cell line screen, 48 h
M19-MEL melanoma = test system: M19-MEL melanoma
NCI-H23 lung = test system: NCI-H23 lung
SK-OV-3 ovarian = test system: SK-OV-3 ovarian
COLO 205 colon = test system: COLO 205 colon
LOX IMVI melanoma = test system: LOX IMVI melanoma
MOLT-4 leukemia = test system: MOLT-4 leukemia
OVCAR-8 ovarian = test system: OVCAR-8 ovarian
SF-295 CNS = test system: SF-295 CNS
RPMI-8226 leukemia = test system: RPMI-8226 leukemia
DMS 273 small cell lung = test system: DMS 273 small cell lung
HCT-15 colon = test system: HCT-15 colon
SF-539 CNS = test system: SF-539 CNS
OVCAR-5 ovarian = test system: OVCAR-5 ovarian
CAKI-1 renal = test system: CAKI-1 renal
OVCAR-3 ovarian = test system: OVCAR-3 ovarian
UO-31 renal = test system: UO-31 renal
UACC-257 melanoma = test system: UACC-257 melanoma
DLD-1 colon = test system: DLD-1 colon
MDA-MB-435 = test system: MDA-MB-435
HS 578T breast = test system: HS 578T breast
NCI-H226 lung = test system: NCI-H226 lung
U251 CNS = test system: U251 CNS
HL-60(TB) leukemia = test system: HL-60(TB) leukemia
SW-620 colon = test system: SW-620 colon
PC-3 prostate = test system: PC-3 prostate
M14 melanoma = test system: M14 melanoma
A498 renal = test system: A498 renal
RXF-631 renal = test system: RXF-631 renal
CCRF-CEM leukemia = test system: CCRF-CEM leukemia
MALME-3M melanoma = test system: MALME-3M melanoma
SK-MEL-5 melanoma = test system: SK-MEL-5 melanoma
OVCAR-4 ovarian = test system: OVCAR-4 ovarian
IGROV1 ovarian = test system: IGROV1 ovarian
TK-10 renal = test system: TK-10 renal
SR leukemia = test system: SR leukemia
NCI-H460 lung = test system: NCI-H460 lung
HT29 colon = test system: HT29 colon
HOP-18 NSCLC = test system: HOP-18 NSCLC
MCF7 breast = test system: MCF7 breast
SN12C renal = test system: SN12C renal
LXFL 529 NSCLC = test system: LXFL 529 NSCLC
RXF 393 renal = test system: RXF 393 renal
EKVX NSCLC = test system: EKVX NSCLC
SK-MEL-28 melanoma = test system: SK-MEL-28 melanoma
KM20L2 colon = test system: KM20L2 colon
T-47D breast = test system: T-47D breast
SNB-19 CNS = test system: SNB-19 CNS
NCI/ADR-RES ovarian = test system: NCI/ADR-RES ovarian
SF-268 CNS = test system: SF-268 CNS
SNB-78 CNS = test system: SNB-78 CNS
A549 NSCLC = test system: A549 NSCLC
ACHN renal = test system: ACHN renal
HOP-62 NSCLC = test system: HOP-62 NSCLC
K-562 leukemia = test system: K-562 leukemia
NCI-H522 lung = test system: NCI-H522 lung
HCT-116 colon = test system: HCT-116 colon
MDA-MB-231 breast = test system: MDA-MB-231 breast
HCC-2998 colon = test system: HCC-2998 colon
DU-145 prostate = test system: DU-145 prostate
SNB-75 CNS = test system: SNB-75 CNS
KM12 colon = test system: KM12 colon

C[C@H]1CCC/C=C/[C@@H]2C[C@H](O)C[C@H]2[C@H](O)/C=C/C(=O)O1
TGI (M19-MEL melanoma): 1.29 nM | GI50 (NCI-H23 lung): 53.1 nM | GI50 (SK-OV-3 ovarian): 36.1 nM and 33.4 nM | TGI (COLO 205 colon): < 10 nM and 35.4 nM | TGI (LOX IMVI melanoma): 41.2 nM and 27.5 nM | GI50 (MOLT-4 leukemia): < 16.5 nM and 48.1 nM and 56.4 nM | GI50 (OVCAR-8 ovarian): 43 nM | GI50 (SF-295 CNS): < 18.1 nM and 52.4 nM and 120 nM | GI50 (RPMI-8226 leukemia): 34.5 nM and 73.7 nM and 110 nM | GI50 (DMS 273 small cell lung): 30.5 nM | TGI (DMS 273 small cell lung): 148 nM | GI50 (HCT-15 colon): 104 nM | GI50 (SF-539 CNS): 32.1 nM | GI50 (OVCAR-5 ovarian): 85.7 nM | GI50 (CAKI-1 renal): 22.7 nM and 54.5 nM and 43.8 nM | TGI (CAKI-1 renal): 59.6 nM and 199 nM and 360 nM | GI50 (OVCAR-3 ovarian): 38.2 nM | GI50 (UO-31 renal): 30.1 nM | TGI (UO-31 renal): 65.5 nM and 492 nM | GI50 (UACC-257 melanoma): 13.2 nM | GI50 (DLD-1 colon): 38.1 nM | TGI (DLD-1 colon): 17300 nM | GI50 (MDA-MB-435): < 17.3 nM and 36.9 nM and 44.9 nM | TGI (HS 578T breast): > 100000 nM | TGI (NCI-H226 lung): 95.4 nM and 148 nM and 47.8 nM | TGI (U251 CNS): > 100000 nM | GI50 (HL-60(TB) leukemia): 28.1 nM and 167 nM and 115 nM | TGI (HL-60(TB) leukemia): 1820 nM and > 15200 nM | TGI (SW-620 colon): 85.6 nM and 118 nM and 124 nM | GI50 (PC-3 prostate): < 20.2 nM and 47.5 nM and 47.8 nM | TGI (M14 melanoma): 6570 nM and 738 nM | GI50 (A498 renal): < 14.9 nM | TGI (A498 renal): 82.1 nM and 37.6 nM | TGI (RXF-631 renal): 272 nM | GI50 (CCRF-CEM leukemia): < 18.3 nM and 50.1 nM and 98.1 nM | TGI (CCRF-CEM leukemia): 5530 nM | TGI (MALME-3M melanoma): 74.5 nM and 25.3 nM and 38.2 nM | GI50 (SK-MEL-5 melanoma): < 12.2 nM | TGI (SK-MEL-5 melanoma): < 10 nM and 12.7 nM and 16.4 nM | GI50 (OVCAR-4 ovarian): 31.2 nM | TGI (OVCAR-4 ovarian): 5620 nM and > 49100 nM | GI50 (IGROV1 ovarian): 39.5 nM and 107 nM and 72.3 nM | TGI (IGROV1 ovarian): 1120 nM and 973 nM and 645 nM | TGI (TK-10 renal): 2570 nM and 362 nM and 1000 nM | GI50 (SR leukemia): < 14.6 nM and 80.8 nM and 41.5 nM | GI50 (NCI-H460 lung): 36 nM and 83.7 nM and 82.8 nM | GI50 (HT29 colon): 22.4 nM | TGI (HOP-18 NSCLC): 2410 nM | GI50 (MCF7 breast): 41.7 nM | GI50 (SN12C renal): 29.4 nM and 84.6 nM and 48.5 nM | TGI (SN12C renal): 3950 nM and 491 nM | GI50 (LXFL 529 NSCLC): 31 nM | TGI (LXFL 529 NSCLC): 28.5 nM and 110 nM | TGI (RXF 393 renal): 48.1 nM and 53 nM and 18.8 nM | GI50 (EKVX NSCLC): < 16.4 nM and 54.4 nM and 44.7 nM | GI50 (SK-MEL-28 melanoma): 29.2 nM | TGI (KM20L2 colon): 36.8 nM and 27.9 nM | GI50 (T-47D breast): 80.9 nM and 619 nM | GI50 (SNB-19 CNS): 30.8 nM and 134 nM and 215 nM | TGI (SNB-19 CNS): > 100000 nM | GI50 (NCI/ADR-RES ovarian): 47.6 nM | GI50 (SF-268 CNS): < 10.3 nM | TGI (SF-268 CNS): > 63300 nM | GI50 (SNB-78 CNS): 32.4 nM | TGI (SNB-78 CNS): > 100000 nM | GI50 (A549 NSCLC): < 20.7 nM and 43.5 nM and 57.8 nM | TGI (A549 NSCLC): > 100000 nM | GI50 (ACHN renal): 35.4 nM and 93.8 nM and 62.6 nM | TGI (ACHN renal): 1390 nM and 2360 nM | GI50 (HOP-62 NSCLC): 21.6 nM and 72.2 nM and 91.5 nM | TGI (HOP-62 NSCLC): 9240 nM and 4210 nM | GI50 (K-562 leukemia): 236 nM | GI50 (NCI-H522 lung): 44 nM and 95.2 nM and 115 nM | TGI (NCI-H522 lung): 208 nM and 213 nM and 354 nM | GI50 (HCT-116 colon): 11.5 nM and 56 nM | TGI (HCT-116 colon): 47.8 nM and 57.3 nM and 152 nM | GI50 (MDA-MB-231 breast): < 10 nM and 20.5 nM and 54.7 nM | TGI (MDA-MB-231 breast): 82.1 nM and 39.9 nM | GI50 (HCC-2998 colon): 62.3 nM and 54 nM | TGI (HCC-2998 colon): 674 nM and 322 nM | GI50 (DU-145 prostate): 78.5 nM and 218 nM and 248 nM | GI50 (SNB-75 CNS): 18.5 nM | GI50 (KM12 colon): 19.7 nM
